Measurements published in article PMC11851448, “Meliponini Geopropolis Extracts Induce ROS Production and Death in Leishmania amazonensis Promastigotes and Axenic Amastigotes In Vitro” (Biology, 2025).

Target: T1, LiARG (recombinant arginase from L. infantum) (Leishmania infantum, UniProt A4IB49)
T1 construct: gene LINJ_35_1490; recombinant, purified
Test: urea release, colorimetric UREA CE kit, […] nm
Type: biochemical

O=c1c(O)c(-c2ccc(O)c(O)c2)oc2cc(O)cc(O)c12 [quercetin]
IC50: 23.2 µM
